# What was measured:
# [1] = biological target: T1, human β3 adrenergic receptor (Homo sapiens, UniProt P13945); assay: cAMP accumulation (SPA) in CHO cells transfected with human β3 adrenergic receptor; type: cell-based; settings: for EC50: CHO cells expressing human β3-AR, cAMP by SPA, 30 min incubation, 10^-9M to 10^-5M; for IA(β3): maximal response relative to isoproterenol at 10^-5M (IA=% activity compound/% activity isoproterenol)
# T1 construct: Full length β3 AR clones (402 amino acids) containing the last 6 amino acids of hβ3—AR are prepared; expressed in transfected cells; host or cells: CHO cells
# Procedure: The ability of compounds of this invention to treat or inhibit disorders related to insulin resistance or hyperglycemia was established with representative compounds of this invention in the following standard pharmacological test procedures, which measured the binding selectivity to the β1, β2, and β3 adrenergic receptors. Binding to the receptors was measured in Chinese Hamster ovary (CHO) cells that were transfected with adrenergic receptors. The following briefly summarizes the procedures used and results obtained.
# Cloning of Human β3-AR Genomic DNA: cDNA was constructed by ligating four polymerase chain reaction (PCR) products using the following primers: an ATG-Narl fragment, sense primer 5′-[…]3′ and anti-sense primer 5′[…]3′; a Narl-Accl fragment, 5′[…]3′ as sense and 5′[…]3′ as anti-sense primer; an Accli-Styl fragment, sense primer 5′[…]3′ and anti-sense primer 5′[…]3′ and a Styl-TAG fragment, with sense primer 5′[…]3′ and anti-sense primer 5′[…]3′. The corresponding primer sequences are described in Mantzoros, C. S., et. al., Diabetes 45: 909-914 (1996). The four fragments are ligated into a pUC 18 plasmid (Gibco-BRL) and sequenced. Full length β3 AR clones (402 amino acids) containing the last 6 amino acids of hβ3—AR are prepared with the β3-βARpcDNA3 from ATTC.
# Binding Procedure: Clones expressing receptor levels of 70 to 110 fmoles/mg protein were used in the test procedures. CHO cells were grown in 24-well tissue culture plates in Dulbecco's Modified Eagle Media with 10% fetal bovine serum, MEM non-essential amino acids, Penicillin-Streptompycin and Geneticin. On the day of test procedure, growth medium was replaced with preincubation media (Dulbecco's Modified Eagle Media and incubated for 30 minutes at 37° C. Preincubation medium was replaced with 0.2 ml treatment medium containing DMEM media containing 250 μM IBMX (isobutyl-1-methylxantine) plus 1 mM ascorbic acid with test compound dissolved in DMSO. Test compounds were tested over a concentration range of 10^−9M to 10^−5M for β3 cells and 10^−8 to 10^−4M for β1 and β2 transfected cells. Isoproterenol (10^−5M) was used as an internal standard for comparison of activity. Cells were incubated at 37° C. on a rocker for 30 min with the β3 cells and 15 min for β1 and β2 cells. Incubation was stopped with the addition of 0.2N HCl and neutralized with 2.5N NaOH. The plates, containing the cells and neutralized media, were stored at −20 degrees celsius until ready to test for cAMP using the SPA test kit (Amersham).
# Data Analysis and Results: Data collected from the SPA test procedure were analyzed as per cent of the maximal isoproterenol response at 10^−5M. Activity curves were plotted using the SAS statistical and graphics software. EC50 values were generated for each compound and the maximal response (IA) developed for each compound is compared to the maximal response of isoproternol at 10^−5M from the following formula:
# IA=% activity compound/% activity isoproterenol
# T1 sequence (P13945 whole entry): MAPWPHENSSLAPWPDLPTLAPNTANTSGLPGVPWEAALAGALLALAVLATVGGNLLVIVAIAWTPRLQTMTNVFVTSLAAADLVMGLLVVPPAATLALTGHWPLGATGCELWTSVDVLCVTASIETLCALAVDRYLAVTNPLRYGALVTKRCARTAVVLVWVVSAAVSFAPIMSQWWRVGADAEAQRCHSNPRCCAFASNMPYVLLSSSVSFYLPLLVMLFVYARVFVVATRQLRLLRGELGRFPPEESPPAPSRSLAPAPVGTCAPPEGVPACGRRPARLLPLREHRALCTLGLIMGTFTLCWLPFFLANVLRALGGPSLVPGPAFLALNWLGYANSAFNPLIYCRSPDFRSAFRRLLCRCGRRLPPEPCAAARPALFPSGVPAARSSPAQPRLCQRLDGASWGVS
Compound,melting point [°C],EC50 [1] [nM],IA(β3) [1]
"O=S(=O)(Cc1noc(-c2ccccc2)n1)c1ccc(CCNCC(O)c2ccc(OC(F)(F)F)cc2)cc1 (stereo not drawn) [Example 8, 2-[(4{[(5-phenyl-1,2,4-oxadiazol-3-yl)methyl]sulfonyl}phenethyl)amino]-1-[4-(trifluoromethoxy)phenyl]-1-ethanol]",125 to 127,–,–
"COc1ccc(-c2nc(CS(=O)(=O)c3ccc(CCNC[C@H](O)COc4ccc(O)c(C)c4)cc3)no2)cc1 [Example 19, 4-[((2S)-2-hydroxy-3-{[4-({[5-(4-methoxyphenyl)-1,2,4-oxadiazol-3-yl]methyl}sulfonyl)phenethyl]amino}propyl)oxy]-2-methylphenol]",–,68,0.95
"COc1ccc(-c2nc(CS(=O)(=O)c3ccc(CCNC[C@H](O)c4ccc(O)c(NS(C)(=O)=O)c4)cc3)no2)cc1 [Example 27, N-[2-hydroxy-5-((1R)-1-hydroxy-2-{[4-({[5-(4-methoxyphenyl)-1,2,4-oxadiazol-3-yl]methyl}sulfonyl)phenethyl]amino}ethyl)phenyl]methanesulfonamide]",–,25,1
"COc1ccc(-c2nc(CS(=O)(=O)c3ccc(CCNC[C@H](O)COc4ccc(O)cc4)cc3)no2)cc1 [Example 29, 4[((2S)-2-hydroxy-3-{[4-({[5-(4-methoxyphenyl)-1,2,4-oxadiazol-3-yl]methyl}sulfonyl)phenethyl]amino}propyl)oxy]phenol]",–,33,1.1
"Cc1ccc(-c2noc(CSc3ccc(CCNC[C@H](O)COc4cccc5[nH]nnc45)cc3)n2)cc1 [Example 33, (2S)-1-(1H-1,2,3-benzotriazol-4-yloxy)-3-{[4-({[3-(4-methylphenyl)-1,2,4-oxadiazol-5-yl]methyl}sulfanyl)phenethyl]amino}-2-propanol]",110,789,0.44

# Now from value to compound:
melting point [°C],EC50 [1] [nM],IA(β3) [1],Compound
–,70,–,"Cc1noc(C)c1-c1nc(CS(=O)(=O)c2ccc(CCNC[C@H](O)COc3ccc(O)cc3)cc2)no1 [Example 12, 4-[((2S)-3-{[4-({[5-(3,5-dimethyl-4-isoxazolyl)-1,2,4-oxadiazol-3-yl]methyl}sulfonyl)phenethyl]amino}-2-hydroxypropyl)oxy]phenol]"
–,28,0.92,"CC(C)(C)c1nc(CS(=O)(=O)c2ccc(CCNC[C@H](O)COc3ccc(O)cc3)cc2)no1 [Example 15, 4-[((2S)-3-{[4-({[5-(tert-butyl)-1,2,4-oxadiazol-3-yl]methyl}sulfonyl)phenethyl]amino}-2-hydroxypropyl)oxy]phenol]"
51 to 57,431,0.62,"[O-][S+](Cc1noc(Cc2ccccc2)n1)c1ccc(CCNC[C@H](O)COc2ccc(O)cc2)cc1 (stereo partly drawn) [Example 24, 4-({(2S)-3-[(4-{[(5-benzyl-1,2,4-oxadiazol-3-yl)methyl]sulfinyl}phenethyl)amino]-2-hydroxypropyl}oxy)phenol]"
–,330,1.2,"CC(C)(C)c1nc(CSc2ccc(CCNC[C@H](O)COc3ccc(O)cc3)cc2)no1 [Example 32, (2S)-4-(3-{2-[4-(5-tert-Butyl-[1,2,4]oxadiazol-3-ylmethylsulfanyl) -phenyl]-ethylamino}-2-hydroxy-propoxy)-phenol]"

# From patent US6458817B1, “Substituted arylsulfides, arylsulfoxides and arylsulfones as beta-3 adrenergic receptor agonists” (Wyeth, priority 2000, dated 2002)
